Reference: patent US7553821B2, “Methods for selectively modulating survivin apoptosis pathways” (Yale University, priority 2000, dated 2009)

Tested on: HeLa cells
Test: DNA content by propidium iodide staining and flow cytometry in transfected HeLa cells
Assay type: cell-based
Details: gated GFP-expressing cells, 48 h after transfection
Experimental: HeLa cells were transfected with GFP-survivin(T34A) in the presence or in the absence of 20 μM of the caspase inhibitor, Z-VAD-fmk. Gated GFP-expressing cells were analyzed 48 h after transfection for DNA content by propidium iodide staining and flow cytometry. The percentages of apoptotic cells with sub-G1 (hypodiploid) […] DNA content are indicated. Apoptotic HeLa cells in GFP-vector transfectants were 8%. Data are representative of one experiment out of at least three independent determinations.
Transfection experiments. For transient transfection, HeLa cells in C-6 tissue culture plates (Costar, Cambridge, Mass.) at ˜60-70% confluency, were incubated in 1 ml of serum-free OptiMEM medium (Life Technologies, Gaithersburg, Md.) for 20 min, and transfected with 2.5 μg of the various plasmid cDNAs plus 9 μl Lipofectamine (Life Technologies). After a 5 h incubation at 37° C., the mixture was aspirated and substituted with complete growth medium for 48-72 h. To generate stable YUSAC-2 transfectants, a survivin(T34A) cDNA was inserted into the HindIII-SpeI sites of the pTet-splice vector (Dr. D. Schatz, Yale University School of Medicine), downstream of the regulatory sequences of the Tet-resistance operon (TetO). […] Gated GFP-expressing cells were analyzed for DNA content by flow cytometry on a FACSort (Becton Dickinson, San Jose, Calif.) using a Cell Quest software. […]

Substance: survivin(T34A): dominant-negative, non-phosphorylatable survivin mutant with Thr34→Ala substitution, expressed from transfected cDNA (also HA- or GFP-tagged)
- hypodiploid (sub-G1) DNA content: resulted in the appearance of HeLa cells with hypodiploid (sub-G1) DNA content
